Assay results published in ChEMBL document CHEMBL4804281, “STK4 inhibitors for treatment of hematologic malignancies” (2020).

Experiments:
Assay type in all cases: cell-based
[1] = target: Casein kinase I isoform epsilon (Homo sapiens) (UniProt P49674); assay: Inhibition of CK1e in human NCI-H929 cells at 10 uM by mass spectroscopic analysis relative to control
[2] = target: Dual specificity protein kinase CLK2 (Homo sapiens) (UniProt P49760); assay: Inhibition of CLK2 in human NCI-H929 cells at 10 uM by mass spectroscopic analysis relative to control
Dual specificity protein kinase CLK2 (Homo sapiens), sequence (P49760 whole entry, looked up): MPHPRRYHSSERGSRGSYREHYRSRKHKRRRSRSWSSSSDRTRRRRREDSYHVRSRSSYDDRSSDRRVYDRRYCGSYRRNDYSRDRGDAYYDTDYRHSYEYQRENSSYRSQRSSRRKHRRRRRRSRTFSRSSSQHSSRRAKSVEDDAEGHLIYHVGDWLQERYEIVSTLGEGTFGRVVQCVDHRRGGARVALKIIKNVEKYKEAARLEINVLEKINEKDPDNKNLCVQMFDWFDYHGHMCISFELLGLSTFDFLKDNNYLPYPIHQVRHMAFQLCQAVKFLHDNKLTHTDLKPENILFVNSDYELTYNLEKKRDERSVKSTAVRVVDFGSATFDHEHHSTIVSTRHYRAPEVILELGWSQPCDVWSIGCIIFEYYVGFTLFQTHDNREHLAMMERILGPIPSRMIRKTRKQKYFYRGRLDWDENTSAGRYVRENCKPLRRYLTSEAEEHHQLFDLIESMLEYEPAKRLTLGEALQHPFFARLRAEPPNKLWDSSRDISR

[3] = target: Aurora kinase A (Homo sapiens) (UniProt O14965); assay: Inhibition of AURA in human NCI-H929 cells at 10 uM by mass spectroscopic analysis relative to control
Aurora kinase A (Homo sapiens), sequence (O14965 whole entry, the tested form may be a part): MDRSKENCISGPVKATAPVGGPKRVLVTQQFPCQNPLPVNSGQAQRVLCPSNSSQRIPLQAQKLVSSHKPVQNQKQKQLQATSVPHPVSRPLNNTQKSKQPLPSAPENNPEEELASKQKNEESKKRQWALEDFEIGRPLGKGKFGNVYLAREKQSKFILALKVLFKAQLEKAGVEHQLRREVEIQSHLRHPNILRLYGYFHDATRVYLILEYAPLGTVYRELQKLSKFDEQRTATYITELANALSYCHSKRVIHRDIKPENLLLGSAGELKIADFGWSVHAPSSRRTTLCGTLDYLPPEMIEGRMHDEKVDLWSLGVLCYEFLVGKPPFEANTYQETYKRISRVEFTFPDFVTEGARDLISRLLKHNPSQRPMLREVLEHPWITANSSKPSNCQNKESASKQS

[4] = target: Ribosomal protein S6 kinase alpha-1 (Homo sapiens) (UniProt Q15418); assay: Inhibition of RSK1 domain 1 in human NCI-H929 cells at 10 uM by mass spectroscopic analysis relative to control
[5] = target: Casein kinase I isoform delta (Homo sapiens) (UniProt P48730); assay: Inhibition of CK1d in human NCI-H929 cells at 10 uM by mass spectroscopic analysis relative to control
Casein kinase I isoform delta (Homo sapiens), sequence (P48730 whole entry, looked up, canonical isoform): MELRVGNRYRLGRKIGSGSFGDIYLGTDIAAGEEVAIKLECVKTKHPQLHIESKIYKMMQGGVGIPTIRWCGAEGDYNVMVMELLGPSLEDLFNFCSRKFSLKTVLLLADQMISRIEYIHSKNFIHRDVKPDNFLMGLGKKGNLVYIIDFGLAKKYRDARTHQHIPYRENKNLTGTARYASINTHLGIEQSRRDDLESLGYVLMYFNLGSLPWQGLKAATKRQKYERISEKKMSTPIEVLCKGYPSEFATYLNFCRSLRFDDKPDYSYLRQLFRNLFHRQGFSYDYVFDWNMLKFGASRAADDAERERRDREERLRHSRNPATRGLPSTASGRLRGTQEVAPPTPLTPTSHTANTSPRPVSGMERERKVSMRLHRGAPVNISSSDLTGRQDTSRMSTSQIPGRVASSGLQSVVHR

[6] = target: T1, TGF-beta receptor type-1 (Homo sapiens) (UniProt P36897); assay: Inhibition of TGFBR1 in human NCI-H929 cells at 10 uM by mass spectroscopic analysis relative to control
T1 sequence (whole entry): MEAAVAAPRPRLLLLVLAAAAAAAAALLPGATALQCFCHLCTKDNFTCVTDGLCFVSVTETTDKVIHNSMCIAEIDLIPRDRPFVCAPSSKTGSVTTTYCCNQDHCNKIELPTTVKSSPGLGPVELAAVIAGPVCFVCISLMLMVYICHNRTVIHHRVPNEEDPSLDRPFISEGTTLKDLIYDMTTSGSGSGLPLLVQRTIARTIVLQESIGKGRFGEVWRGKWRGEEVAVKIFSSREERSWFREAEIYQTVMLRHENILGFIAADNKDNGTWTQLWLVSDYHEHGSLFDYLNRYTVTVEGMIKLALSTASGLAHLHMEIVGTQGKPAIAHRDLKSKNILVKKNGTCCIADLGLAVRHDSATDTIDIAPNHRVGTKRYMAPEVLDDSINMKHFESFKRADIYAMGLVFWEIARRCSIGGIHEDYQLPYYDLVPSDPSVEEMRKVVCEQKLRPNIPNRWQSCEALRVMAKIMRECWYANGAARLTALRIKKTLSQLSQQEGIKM

[7] = target: STE20-like serine/threonine-protein kinase (Homo sapiens) (UniProt Q9H2G2); assay: Inhibition of SLK in human NCI-H929 cells at 10 uM by mass spectroscopic analysis relative to control
[8] = target: Serine/threonine-protein kinase 24 (Homo sapiens) (UniProt Q9Y6E0); assay: Inhibition of MST3 in human NCI-H929 cells at 10 uM by mass spectroscopic analysis relative to control
[9] = target: Mitogen-activated protein kinase kinase kinase 3 (Homo sapiens) (UniProt Q99759); assay: Inhibition of MAP3K3 in human NCI-H929 cells at 10 uM by mass spectroscopic analysis relative to control
[10] = target: Interleukin-1 receptor-associated kinase 1 (Homo sapiens) (UniProt P51617); assay: Inhibition of IRAK1 in human NCI-H929 cells at 10 uM by mass spectroscopic analysis relative to control
[11] = target: Serine/threonine-protein kinase D3 (Homo sapiens) (UniProt O94806); assay: Inhibition of PKD3 in human NCI-H929 cells at 10 uM by mass spectroscopic analysis relative to control
[12] = target: Serine/threonine-protein kinase 10 (Homo sapiens) (UniProt O94804); assay: Inhibition of LOK in human NCI-H929 cells at 10 uM by mass spectroscopic analysis relative to control
[13] = target: Mitogen-activated protein kinase kinase kinase kinase 1 (Homo sapiens) (UniProt Q92918); assay: Inhibition of HPK1 in human NCI-H929 cells at 10 uM by mass spectroscopic analysis relative to control
[14] = target: Serine/threonine-protein kinase D2 (Homo sapiens) (UniProt Q9BZL6); assay: Inhibition of PKD2 in human NCI-H929 cells at 10 uM by mass spectroscopic analysis relative to control
[15] = target: NUAK family SNF1-like kinase 2 (Homo sapiens) (UniProt Q9H093); assay: Inhibition of NuaK2 in human NCI-H929 cells at 10 uM by mass spectroscopic analysis relative to control
[16] = target: Serine/threonine-protein kinase SMG1 (Homo sapiens) (UniProt Q96Q15); assay: Inhibition of SMG1 in human NCI-H929 cells at 10 uM by mass spectroscopic analysis relative to control
Serine/threonine-protein kinase SMG1 (Homo sapiens), sequence (Q96Q15 whole entry): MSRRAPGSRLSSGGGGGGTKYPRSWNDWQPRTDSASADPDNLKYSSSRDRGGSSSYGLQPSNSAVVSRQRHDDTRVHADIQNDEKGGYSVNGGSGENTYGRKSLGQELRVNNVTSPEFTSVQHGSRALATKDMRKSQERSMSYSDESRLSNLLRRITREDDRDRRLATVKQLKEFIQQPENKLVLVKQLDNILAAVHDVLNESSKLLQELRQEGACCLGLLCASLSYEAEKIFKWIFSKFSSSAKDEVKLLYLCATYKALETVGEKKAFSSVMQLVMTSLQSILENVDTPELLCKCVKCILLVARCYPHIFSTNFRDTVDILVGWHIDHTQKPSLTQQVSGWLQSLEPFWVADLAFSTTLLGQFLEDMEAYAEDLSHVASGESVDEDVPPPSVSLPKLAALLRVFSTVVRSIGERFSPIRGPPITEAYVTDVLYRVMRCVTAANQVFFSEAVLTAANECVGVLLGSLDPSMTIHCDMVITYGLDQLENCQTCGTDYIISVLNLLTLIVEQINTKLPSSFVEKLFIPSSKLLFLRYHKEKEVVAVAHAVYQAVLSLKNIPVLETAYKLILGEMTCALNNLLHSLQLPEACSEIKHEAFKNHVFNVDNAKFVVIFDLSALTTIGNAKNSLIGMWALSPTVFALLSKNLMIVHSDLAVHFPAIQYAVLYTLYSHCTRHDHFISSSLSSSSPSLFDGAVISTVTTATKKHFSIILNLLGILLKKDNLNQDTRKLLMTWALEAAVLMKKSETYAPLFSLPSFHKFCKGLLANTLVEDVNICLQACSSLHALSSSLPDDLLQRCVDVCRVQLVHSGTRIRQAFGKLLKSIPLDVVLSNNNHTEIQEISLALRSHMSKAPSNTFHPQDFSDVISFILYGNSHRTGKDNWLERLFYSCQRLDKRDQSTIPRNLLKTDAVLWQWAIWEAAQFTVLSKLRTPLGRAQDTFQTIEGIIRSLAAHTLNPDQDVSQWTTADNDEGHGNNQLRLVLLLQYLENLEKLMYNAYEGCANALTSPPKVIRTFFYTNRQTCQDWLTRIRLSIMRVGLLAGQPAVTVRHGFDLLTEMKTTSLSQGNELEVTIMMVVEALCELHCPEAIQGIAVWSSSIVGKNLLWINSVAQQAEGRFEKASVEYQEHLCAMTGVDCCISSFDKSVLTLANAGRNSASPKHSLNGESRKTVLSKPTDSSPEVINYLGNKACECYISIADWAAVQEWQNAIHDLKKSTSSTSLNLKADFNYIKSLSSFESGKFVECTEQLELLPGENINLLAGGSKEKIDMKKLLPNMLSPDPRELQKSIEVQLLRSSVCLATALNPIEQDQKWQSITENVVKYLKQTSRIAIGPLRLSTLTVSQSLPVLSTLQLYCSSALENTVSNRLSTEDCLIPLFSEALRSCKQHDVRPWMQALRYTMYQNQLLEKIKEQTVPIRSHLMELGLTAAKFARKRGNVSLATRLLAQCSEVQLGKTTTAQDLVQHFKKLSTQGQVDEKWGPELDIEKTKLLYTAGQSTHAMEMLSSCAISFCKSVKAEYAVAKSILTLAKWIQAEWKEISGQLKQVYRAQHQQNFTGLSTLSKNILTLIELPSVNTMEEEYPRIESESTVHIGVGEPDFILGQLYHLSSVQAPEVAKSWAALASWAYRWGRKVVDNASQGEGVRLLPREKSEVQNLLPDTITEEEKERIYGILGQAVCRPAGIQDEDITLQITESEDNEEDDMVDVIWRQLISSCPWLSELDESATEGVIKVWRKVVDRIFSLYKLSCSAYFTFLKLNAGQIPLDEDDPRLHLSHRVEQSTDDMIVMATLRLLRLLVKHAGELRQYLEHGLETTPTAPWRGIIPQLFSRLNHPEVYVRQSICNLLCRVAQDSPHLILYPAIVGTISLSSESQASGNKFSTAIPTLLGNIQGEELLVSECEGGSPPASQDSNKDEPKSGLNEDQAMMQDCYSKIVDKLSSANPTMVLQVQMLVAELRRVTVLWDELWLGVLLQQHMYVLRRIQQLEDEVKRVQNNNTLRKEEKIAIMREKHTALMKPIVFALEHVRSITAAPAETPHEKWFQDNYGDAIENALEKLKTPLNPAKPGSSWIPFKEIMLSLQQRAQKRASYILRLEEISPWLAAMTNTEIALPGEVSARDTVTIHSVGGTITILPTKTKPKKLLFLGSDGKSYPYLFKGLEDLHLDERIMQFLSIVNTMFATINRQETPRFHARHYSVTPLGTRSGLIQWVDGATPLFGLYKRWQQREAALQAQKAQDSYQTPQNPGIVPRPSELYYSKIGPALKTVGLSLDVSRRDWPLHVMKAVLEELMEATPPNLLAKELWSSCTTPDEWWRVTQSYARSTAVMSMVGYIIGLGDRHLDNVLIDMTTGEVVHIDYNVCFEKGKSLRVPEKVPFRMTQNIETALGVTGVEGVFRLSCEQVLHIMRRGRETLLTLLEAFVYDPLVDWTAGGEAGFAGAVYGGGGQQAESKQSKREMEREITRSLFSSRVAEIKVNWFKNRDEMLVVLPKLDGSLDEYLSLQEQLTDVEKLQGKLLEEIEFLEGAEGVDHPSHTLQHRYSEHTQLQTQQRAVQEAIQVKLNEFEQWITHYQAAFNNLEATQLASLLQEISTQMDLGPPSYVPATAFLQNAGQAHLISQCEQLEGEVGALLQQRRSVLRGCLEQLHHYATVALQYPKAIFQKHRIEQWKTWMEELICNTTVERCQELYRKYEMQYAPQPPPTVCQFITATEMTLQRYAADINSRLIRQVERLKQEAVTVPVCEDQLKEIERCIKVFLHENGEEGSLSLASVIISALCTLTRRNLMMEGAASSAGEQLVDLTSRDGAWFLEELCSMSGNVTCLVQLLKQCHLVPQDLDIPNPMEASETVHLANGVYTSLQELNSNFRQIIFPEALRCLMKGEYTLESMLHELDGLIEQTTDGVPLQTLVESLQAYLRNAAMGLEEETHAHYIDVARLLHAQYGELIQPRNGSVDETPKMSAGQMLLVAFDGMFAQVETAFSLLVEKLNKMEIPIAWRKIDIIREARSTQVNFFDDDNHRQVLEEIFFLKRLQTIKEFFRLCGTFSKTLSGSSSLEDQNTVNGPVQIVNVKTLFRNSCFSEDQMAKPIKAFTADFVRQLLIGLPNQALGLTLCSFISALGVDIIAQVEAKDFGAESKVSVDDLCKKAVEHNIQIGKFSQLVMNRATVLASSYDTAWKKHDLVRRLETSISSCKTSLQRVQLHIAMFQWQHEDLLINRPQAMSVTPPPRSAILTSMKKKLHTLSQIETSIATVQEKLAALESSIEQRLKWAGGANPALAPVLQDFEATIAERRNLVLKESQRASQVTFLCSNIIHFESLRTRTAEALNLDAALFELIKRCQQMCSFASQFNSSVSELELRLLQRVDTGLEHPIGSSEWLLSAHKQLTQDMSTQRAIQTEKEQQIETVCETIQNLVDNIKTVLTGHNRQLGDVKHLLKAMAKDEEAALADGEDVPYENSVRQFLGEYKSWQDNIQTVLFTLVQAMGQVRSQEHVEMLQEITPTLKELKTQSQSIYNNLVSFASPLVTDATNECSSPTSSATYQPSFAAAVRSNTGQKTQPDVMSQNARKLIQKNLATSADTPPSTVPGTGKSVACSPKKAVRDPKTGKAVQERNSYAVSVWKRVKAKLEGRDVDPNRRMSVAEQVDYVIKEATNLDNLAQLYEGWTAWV

[17] = target: Protein kinase C zeta type (Homo sapiens) (UniProt Q05513); assay: Inhibition of PKCz in human NCI-H929 cells at 10 uM by mass spectroscopic analysis relative to control
[18] = target: Activin receptor type-1B (Homo sapiens) (UniProt P36896); assay: Inhibition of ALK4 in human NCI-H929 cells at 10 uM by mass spectroscopic analysis relative to control
[19] = target: Mitogen-activated protein kinase kinase kinase kinase 5 (Homo sapiens) (UniProt Q9Y4K4); assay: Inhibition of KHS1 in human NCI-H929 cells at 10 uM by mass spectroscopic analysis relative to control
[20] = target: Serine/threonine-protein kinase STK11 (Homo sapiens) (UniProt Q15831); assay: Inhibition of LKB1 in human NCI-H929 cells at 10 uM by mass spectroscopic analysis relative to control
[21] = target: Activin receptor type-1 (Homo sapiens) (UniProt Q04771); assay: Inhibition of ALK2 in human NCI-H929 cells at 10 uM by mass spectroscopic analysis relative to control
[22] = target: Activin receptor type-1C (Homo sapiens) (UniProt Q8NER5); assay: Inhibition of ALK7 in human NCI-H929 cells at 10 uM by mass spectroscopic analysis relative to control
[23] = target: Casein kinase I isoform gamma-2 (Homo sapiens) (UniProt P78368); assay: Inhibition of CK1g2 in human NCI-H929 cells at 10 uM by mass spectroscopic analysis relative to control

SMILES	inhibition [1] [%]	inhibition [2] [%]	inhibition [3] [%]	inhibition [4] [%]	inhibition [5] [%]	inhibition [6] [%]	inhibition [7] [%]	inhibition [8] [%]	inhibition [9] [%]	inhibition [10] [%]	inhibition [11] [%]	inhibition [12] [%]	inhibition [13] [%]	inhibition [14] [%]	inhibition [15] [%]	inhibition [16] [%]	inhibition [18] [%]	inhibition [19] [%]	inhibition [21] [%]	inhibition [22] [%]	other results
Nc1ncc(-c2cccc([N+](=O)[O-])c2F)cc1-c1ccc2c(c1)CCNC2=O	> 90	0	< 90	< 75	> 90	–	–	–	–	–	–	–	–	–	–	–	–	–	–	–	–
CN(C1CC1)S(=O)(=O)c1ccc(-c2cnc(N)c(-c3ccc4c(c3)CCNC4=O)c2)c(F)c1	50	–	–	–	50	–	50	50	0	50	–	–	–	–	–	–	–	–	–	–	–
Nc1ncc(-c2cccc3ncsc23)cc1-c1ccc2c(c1)CCNC2=O	–	–	–	–	–	–	–	–	0	–	50	50	50	50	50	50	–	–	–	–	–

Second part, led by results:

inhibition [1] [%]	inhibition [2] [%]	inhibition [3] [%]	inhibition [4] [%]	inhibition [5] [%]	inhibition [6] [%]	inhibition [7] [%]	inhibition [8] [%]	inhibition [9] [%]	inhibition [10] [%]	inhibition [11] [%]	inhibition [12] [%]	inhibition [13] [%]	inhibition [14] [%]	inhibition [15] [%]	inhibition [16] [%]	inhibition [18] [%]	inhibition [19] [%]	inhibition [21] [%]	inhibition [22] [%]	SMILES	other results
–	–	< 75	–	–	0	–	–	–	–	–	–	–	–	–	–	–	–	–	–	Nc1ncc(-c2ccc(NS(=O)(=O)C3CC3)cc2F)cc1-c1ccc2c(c1)CCNC2=O	–
–	–	–	–	–	75	50	–	–	0	0	0	0	50	0	–	75	0	75	75	COc1cc(NS(=O)(=O)C2CC2)ccc1-c1cnc(N)c(-c2ccc3c(c2)CCNC3=O)c1	inhibition [17]: 50%; inhibition [20]: > 90%; inhibition [23]: 75%
–	50	–	< 75	–	> 90	–	> 90	–	–	–	–	–	–	–	50	> 90	50	> 90	> 90	Nc1ncc(-c2ccc(NS(=O)(=O)C3CC3)cc2OC2CCCCC2)cc1-c1ccc2c(c1)CCNC2=O	inhibition [23]: 50%
